According to ChEMBL document CHEMBL1201862, “PubChem BioAssay data set” (2004):
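Interpolation was linear, between the two tested concentrations surrounding the appropriate level; five concentrations were tested over 48 hours in 96-well plates. GI50: concentration for 50% inhibition of growth.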 The source made the active and inactive calls. Cut-off read from the data, not from the text of the source: active = GI50 up to about 1.1 µM and inactive = higher.

How the values were obtained:
Assay in all cases: DTP human tumour cell line panel, 48 h
SNB-75 = test system: SNB-75
HCT-116 = test system: HCT-116
EKVX = test system: EKVX
DU-145 = test system: DU-145
HCC 2998 = test system: HCC 2998
KM12 = test system: KM12
SK-MEL-28 = test system: SK-MEL-28
HCT-15 = test system: HCT-15
SF-295 = test system: SF-295
HOP-62 = test system: HOP-62
NCI-H460 = test system: NCI-H460
UACC-62 = test system: UACC-62
CCRF-CEM = test system: CCRF-CEM
NCI/ADR-RES = test system: NCI/ADR-RES
Hs-578T = test system: Hs-578T
MDA-N = test system: MDA-N
PC-3 = test system: PC-3
IGROV-1 = test system: IGROV-1
M14 = test system: M14
SK-MEL-2 = test system: SK-MEL-2
OVCAR-4 = test system: OVCAR-4
NCI-H23 = test system: NCI-H23
OVCAR-3 = test system: OVCAR-3
MOLT-4 = test system: MOLT-4
K562 = test system: K562
SN12C = test system: SN12C
HL-60 = test system: HL-60
SF-268 = test system: SF-268
U-251 = test system: U-251
CAKI-1 = test system: CAKI-1
OVCAR-8 = test system: OVCAR-8
NCI-H226 = test system: NCI-H226
HT-29 = test system: HT-29
A549 = test system: A549
SW-620 = test system: SW-620
BT-549 = test system: BT-549
MCF7 = test system: MCF7
COLO 205 = test system: COLO 205
A498 = test system: A498
T47D = test system: T47D
UO-31 = test system: UO-31
ACHN = test system: ACHN
MDA-MB-231 = test system: MDA-MB-231
SF-539 = test system: SF-539
786-0 = test system: 786-0
SK-OV-3 = test system: SK-OV-3
UACC-257 = test system: UACC-257
TK-10 = test system: TK-10
SNB-19 = test system: SNB-19
OVCAR-5 = test system: OVCAR-5
NCI-H522 = test system: NCI-H522
SK-MEL-5 = test system: SK-MEL-5
SR = test system: SR
RXF 393 = test system: RXF 393
MDA-MB-435 = test system: MDA-MB-435
Malme-3M = test system: Malme-3M
RPMI-8226 = test system: RPMI-8226

## COCCNc1cncc(C(N)=O)c1
SNB-75
  GI50: 87.9 µM (inactive)
HCT-116
  GI50: > 100 µM (inactive)
EKVX
  GI50: > 100 µM (inactive)
DU-145
  GI50: > 100 µM (inactive)
HCC 2998
  GI50: > 100 µM (inactive)
KM12
  GI50: > 100 µM (inactive)
SK-MEL-28
  GI50: > 100 µM (inactive)
HCT-15
  GI50: > 100 µM
SF-295
  GI50: > 100 µM (inactive)
HOP-62
  GI50: > 100 µM (inactive)
NCI-H460
  GI50: > 100 µM (inactive)
UACC-62
  GI50: > 100 µM (inactive)
CCRF-CEM
  GI50: > 100 µM (inactive)
NCI/ADR-RES
  GI50: > 100 µM (inactive)
Hs-578T
  GI50: > 100 µM (inactive)
MDA-N
  GI50: > 100 µM (inactive)
PC-3
  GI50: > 100 µM (inactive)
IGROV-1
  GI50: > 100 µM (inactive)
M14
  GI50: > 100 µM (inactive)
SK-MEL-2
  GI50: > 100 µM (inactive)
OVCAR-4
  GI50: > 100 µM (inactive)
NCI-H23
  GI50: > 100 µM (inactive)
OVCAR-3
  GI50: > 100 µM (inactive)
MOLT-4
  GI50: > 100 µM (inactive)
K562
  GI50: > 100 µM (inactive)
SN12C
  GI50: > 100 µM (inactive)
HL-60
  GI50: > 100 µM (inactive)
SF-268
  GI50: > 100 µM (inactive)
U-251
  GI50: > 100 µM (inactive)
CAKI-1
  GI50: > 100 µM (inactive)
OVCAR-8
  GI50: > 100 µM (inactive)
NCI-H226
  GI50: > 100 µM (inactive)
HT-29
  GI50: > 100 µM (inactive)
A549
  GI50: > 100 µM (inactive)
SW-620
  GI50: > 100 µM (inactive)
BT-549
  GI50: > 100 µM (inactive)
MCF7
  GI50: > 100 µM (inactive)
COLO 205
  GI50: > 100 µM (inactive)
A498
  GI50: > 100 µM (inactive)
T47D
  GI50: 65.6 µM (inactive)
UO-31
  GI50: > 100 µM (inactive)
ACHN
  GI50: > 100 µM (inactive)
MDA-MB-231
  GI50: > 100 µM (inactive)
SF-539
  GI50: > 100 µM (inactive)
786-0
  GI50: > 100 µM (inactive)
SK-OV-3
  GI50: > 100 µM (inactive)
UACC-257
  GI50: > 100 µM (inactive)
TK-10
  GI50: > 100 µM (inactive)
SNB-19
  GI50: > 100 µM (inactive)
OVCAR-5
  GI50: > 100 µM (inactive)
NCI-H522
  GI50: > 100 µM (inactive)
SK-MEL-5
  GI50: > 100 µM (inactive)
SR
  GI50: > 100 µM (inactive)

## [O-][S+](c1ccc(Cl)cc1)c1ccccc1C1=NCCN1 (configuration not stated)
SNB-75
  GI50: > 100 µM (inactive)
HCT-116
  GI50: > 100 µM (inactive)
EKVX
  GI50: > 100 µM (inactive)
DU-145
  GI50: > 100 µM (inactive)
HCC 2998
  GI50: > 100 µM (inactive)
KM12
  GI50: > 100 µM (inactive)
SK-MEL-28
  GI50: > 100 µM (inactive)
HCT-15
  GI50: > 100 µM
SF-295
  GI50: > 100 µM (inactive)
HOP-62
  GI50: > 100 µM (inactive)
NCI-H460
  GI50: > 100 µM (inactive)
UACC-62
  GI50: > 100 µM (inactive)
CCRF-CEM
  GI50: > 100 µM (inactive)
NCI/ADR-RES
  GI50: > 100 µM (inactive)
RXF 393
  GI50: > 100 µM (inactive)
Hs-578T
  GI50: > 100 µM (inactive)
MDA-N
  GI50: > 100 µM (inactive)
PC-3
  GI50: > 100 µM (inactive)
IGROV-1
  GI50: > 100 µM (inactive)
M14
  GI50: > 100 µM (inactive)
SK-MEL-2
  GI50: > 100 µM (inactive)
OVCAR-4
  GI50: > 100 µM (inactive)
NCI-H23
  GI50: > 100 µM (inactive)
OVCAR-3
  GI50: > 100 µM (inactive)
MOLT-4
  GI50: > 100 µM (inactive)
K562
  GI50: > 100 µM (inactive)
SN12C
  GI50: > 100 µM (inactive)
HL-60
  GI50: > 100 µM (inactive)
SF-268
  GI50: > 100 µM (inactive)
U-251
  GI50: > 100 µM (inactive)
CAKI-1
  GI50: > 100 µM (inactive)
OVCAR-8
  GI50: > 100 µM (inactive)
NCI-H226
  GI50: > 100 µM (inactive)
HT-29
  GI50: > 100 µM (inactive)
A549
  GI50: > 100 µM (inactive)
SW-620
  GI50: > 100 µM (inactive)
BT-549
  GI50: > 100 µM (inactive)
MDA-MB-435
  GI50: > 100 µM (inactive)
MCF7
  GI50: > 100 µM (inactive)
COLO 205
  GI50: > 100 µM (inactive)
T47D
  GI50: > 100 µM (inactive)
UO-31
  GI50: > 100 µM (inactive)
ACHN
  GI50: > 100 µM (inactive)
MDA-MB-231
  GI50: > 100 µM (inactive)
786-0
  GI50: > 100 µM (inactive)
SK-OV-3
  GI50: > 100 µM (inactive)
UACC-257
  GI50: > 100 µM (inactive)
Malme-3M
  GI50: > 100 µM (inactive)
TK-10
  GI50: > 100 µM (inactive)
SNB-19
  GI50: > 100 µM (inactive)
OVCAR-5
  GI50: > 100 µM (inactive)
NCI-H522
  GI50: > 100 µM (inactive)
RPMI-8226
  GI50: > 100 µM (inactive)
SK-MEL-5
  GI50: > 100 µM (inactive)
